In ChEMBL document CHEMBL5579900, “Enhanced Recognition Memory through Dual Modulation of Brain Carbonic Anhydrases and Cholinesterases” (J Med Chem, 2024):
Active and inactive are the calls of the source. The rule behind the calls is not given here.

What was measured:
[1] = test system: Mus musculus; assay: Improvement of social recognition memory in juvenile familiar male C57Bl6 mouse assessed as reduction in exploration time at 5 nmol/uL, ICV administered post acquisition phase and measured after 48 hrs at retention test phase in presence of tacrine; format: functional, organism-based
[2] = test system: Mus musculus; assay: Improvement of social recognition memory in juvenile unfamiliar male C57Bl6 mouse assessed as reduction in exploration time at 5 nmol/uL, ICV administered post acquisition phase and measured after 48 hrs at retention test phase in presence of tacrine; format: functional, organism-based
[3] = test system: Mus musculus; assay: Improvement of social recognition memory in juvenile familiar male C57Bl6 mouse assessed as reduction in exploration time at 25 nmol/uL, ICV administered post acquisition phase and measured after 48 hrs at retention test phase in presence of tacrine; format: functional, organism-based
[4] = test system: Mus musculus; assay: Improvement of social recognition memory in juvenile unfamiliar male C57Bl6 mouse assessed as reduction in exploration time at 25 nmol/uL, ICV administered post acquisition phase and measured after 48 hrs at retention test phase in presence of tacrine; format: functional, organism-based
[5] = test system: Mus musculus; assay: Improvement of social recognition memory in juvenile familiar male C57Bl6 mouse assessed as discrimination index at 50 nmol/uL, ICV administered post acquisition phase and measured after 48 hrs at retention test phase (reference value: -0.07+/-0.0124); format: functional
[6] = test system: Mus musculus; assay: Improvement of social recognition memory in juvenile familiar male C57Bl6 mouse assessed as discrimination index at 25 nmol/uL, ICV administered post acquisition phase and measured after 48 hrs at retention test phase in presence of tacrine (reference value: -0.07+/-0.0124); format: functional
[7] = test system: Mus musculus; assay: Improvement of social recognition memory in juvenile unfamiliar male C57Bl6 mouse assessed as reduction in exploration time at 0.1 nmol/uL, ICV administered post acquisition phase and measured after 48 hrs at retention test phase; format: functional, organism-based
[8] = test system: Mus musculus; assay: Improvement of social recognition memory in juvenile familiar male C57Bl6 mouse assessed as reduction in exploration time at 0.1 nmol/uL, ICV administered post acquisition phase and measured after 48 hrs at retention test phase; format: functional, organism-based
[9] = test system: Mus musculus; assay: Improvement of social recognition memory in juvenile unfamiliar male C57Bl6 mouse assessed as reduction in exploration time by measuring discrimination index at 0.1 nmol/uL, ICV administered post acquisition phase and measured after 48 hrs at retention test phase; format: functional, organism-based
[10] = test system: Mus musculus; assay: Improvement of social recognition memory in juvenile familiar male C57Bl6 mouse assessed as reduction in exploration time by measuring discrimination index at 0.1 nmol/uL, ICV administered post acquisition phase and measured after 48 hrs at retention test phase; format: functional, organism-based
[11] = test system: Mus musculus; assay: Improvement of social recognition memory in juvenile unfamiliar male C57Bl6 mouse assessed as reduction in exploration time at 0.5 to 25 nmol/uL, ICV administered post acquisition phase and measured after 48 hrs at retention test phase; format: functional, organism-based; settings: dose 0.5-25 nmol/uL
[12] = test system: Mus musculus; assay: Improvement of social recognition memory in juvenile familiar male C57Bl6 mouse assessed as reduction in exploration time at 0.5 to 25 nmol/uL, ICV administered post acquisition phase and measured after 48 hrs at retention test phase; format: functional, organism-based; settings: dose 0.5-25 nmol/uL
[13] = target: Acetylcholinesterase (Electrophorus electricus, UniProt O42275)
Description: Inhibition of electric eel AChE by microplate reader based analysis

[14] = target: Cholinesterase (Equus caballus, UniProt P81908)
Description: Inhibition of equine serum BuChE by microplate reader based analysis

[15] = target: Carbonic anhydrase 1 (Homo sapiens) (UniProt P00915)
Description: Binding affinity to human carbonic anhydrase 1 assessed as activation constant by phenol red dye based stopped-flow method

[16] = target: Carbonic anhydrase 2 (Homo sapiens) (UniProt P00918); settings: filed as activator
Description: Binding affinity to human carbonic anhydrase 2 assessed as activation constant by phenol red dye based stopped-flow method

[17] = target: Carbonic anhydrase 4 (Homo sapiens) (UniProt P22748)
Description: Binding affinity to human carbonic anhydrase 4 assessed as activation constant by phenol red dye based stopped-flow method

[18] = target: Carbonic anhydrase 5B, mitochondrial (Homo sapiens) (UniProt Q9Y2D0)
Description: Binding affinity to human carbonic anhydrase 5B assessed as activation constant by phenol red dye based stopped-flow method

[19] = target: Carbonic anhydrase 7 (Homo sapiens) (UniProt P43166)
Description: Binding affinity to human carbonic anhydrase 7 assessed as activation constant by phenol red dye based stopped-flow method

[20] = test system: Mus musculus; assay: Improvement of social recognition memory in juvenile unfamiliar male C57Bl6 mouse assessed as reduction in exploration time at 0.5 nmol/uL, ICV administered post acquisition phase and measured after 48 hrs at retention test phase; format: functional, organism-based
[21] = test system: Mus musculus; assay: Improvement of social recognition memory in juvenile familiar male C57Bl6 mouse assessed as reduction in exploration time at 0.5 nmol/uL, ICV administered post acquisition phase and measured after 48 hrs at retention test phase; format: functional, organism-based
[22] = test system: Mus musculus; assay: Improvement of social recognition memory in juvenile unfamiliar male C57Bl6 mouse assessed as reduction in exploration time by measuring discrimination index at 0.5 nmol/uL, ICV administered post acquisition phase and measured after 48 hrs at retention test phase; format: functional, organism-based
[23] = test system: Mus musculus; assay: Improvement of social recognition memory in juvenile familiar male C57Bl6 mouse assessed as reduction in exploration time by measuring discrimination index at 0.5 nmol/uL, ICV administered post acquisition phase and measured after 48 hrs at retention test phase; format: functional, organism-based

Sequence of Carbonic anhydrase 4 (Homo sapiens) (P22748 whole entry): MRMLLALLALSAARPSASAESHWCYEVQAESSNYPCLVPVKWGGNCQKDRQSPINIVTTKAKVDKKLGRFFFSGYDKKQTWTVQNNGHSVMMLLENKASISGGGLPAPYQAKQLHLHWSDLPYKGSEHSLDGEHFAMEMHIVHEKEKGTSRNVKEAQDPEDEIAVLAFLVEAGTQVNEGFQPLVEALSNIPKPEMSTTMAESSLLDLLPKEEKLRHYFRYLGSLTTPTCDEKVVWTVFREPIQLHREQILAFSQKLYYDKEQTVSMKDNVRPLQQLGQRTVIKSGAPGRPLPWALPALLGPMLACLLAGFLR
Sequence of Acetylcholinesterase (O42275 whole entry): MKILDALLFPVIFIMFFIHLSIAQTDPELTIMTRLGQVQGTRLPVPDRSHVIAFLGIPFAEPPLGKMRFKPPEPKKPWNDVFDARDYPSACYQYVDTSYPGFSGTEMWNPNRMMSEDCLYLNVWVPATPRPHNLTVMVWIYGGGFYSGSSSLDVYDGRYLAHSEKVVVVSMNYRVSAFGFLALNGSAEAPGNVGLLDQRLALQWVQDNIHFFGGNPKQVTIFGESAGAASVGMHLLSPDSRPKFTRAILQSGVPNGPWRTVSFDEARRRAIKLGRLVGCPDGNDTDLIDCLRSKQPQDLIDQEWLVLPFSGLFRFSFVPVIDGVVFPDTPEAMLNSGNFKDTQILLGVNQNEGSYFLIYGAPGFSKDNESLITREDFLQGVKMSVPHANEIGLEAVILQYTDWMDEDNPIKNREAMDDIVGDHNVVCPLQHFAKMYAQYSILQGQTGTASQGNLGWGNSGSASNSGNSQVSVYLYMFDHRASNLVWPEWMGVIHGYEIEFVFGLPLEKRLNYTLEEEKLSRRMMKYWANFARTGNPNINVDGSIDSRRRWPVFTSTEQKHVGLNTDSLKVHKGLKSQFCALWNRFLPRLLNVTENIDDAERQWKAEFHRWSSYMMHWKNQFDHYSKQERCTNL
Sequence of Carbonic anhydrase 7 (Homo sapiens) (P43166 whole entry): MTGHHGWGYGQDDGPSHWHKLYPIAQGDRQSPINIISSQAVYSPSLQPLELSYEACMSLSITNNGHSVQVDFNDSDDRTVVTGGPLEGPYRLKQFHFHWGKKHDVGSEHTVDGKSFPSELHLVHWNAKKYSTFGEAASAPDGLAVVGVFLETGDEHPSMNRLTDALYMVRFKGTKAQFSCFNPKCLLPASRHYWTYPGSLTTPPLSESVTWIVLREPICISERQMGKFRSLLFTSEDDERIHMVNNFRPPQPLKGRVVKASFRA
Sequence of Carbonic anhydrase 5B, mitochondrial (Homo sapiens) (Q9Y2D0 whole entry): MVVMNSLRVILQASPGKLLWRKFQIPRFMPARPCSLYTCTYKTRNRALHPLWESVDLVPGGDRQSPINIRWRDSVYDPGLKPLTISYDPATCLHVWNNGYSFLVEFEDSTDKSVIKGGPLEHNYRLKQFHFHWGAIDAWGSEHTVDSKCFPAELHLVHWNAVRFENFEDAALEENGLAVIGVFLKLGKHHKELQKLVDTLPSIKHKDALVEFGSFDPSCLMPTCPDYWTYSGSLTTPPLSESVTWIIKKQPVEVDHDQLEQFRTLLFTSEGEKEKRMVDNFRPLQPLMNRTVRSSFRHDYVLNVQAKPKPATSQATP
Sequence of Cholinesterase (P81908 whole entry): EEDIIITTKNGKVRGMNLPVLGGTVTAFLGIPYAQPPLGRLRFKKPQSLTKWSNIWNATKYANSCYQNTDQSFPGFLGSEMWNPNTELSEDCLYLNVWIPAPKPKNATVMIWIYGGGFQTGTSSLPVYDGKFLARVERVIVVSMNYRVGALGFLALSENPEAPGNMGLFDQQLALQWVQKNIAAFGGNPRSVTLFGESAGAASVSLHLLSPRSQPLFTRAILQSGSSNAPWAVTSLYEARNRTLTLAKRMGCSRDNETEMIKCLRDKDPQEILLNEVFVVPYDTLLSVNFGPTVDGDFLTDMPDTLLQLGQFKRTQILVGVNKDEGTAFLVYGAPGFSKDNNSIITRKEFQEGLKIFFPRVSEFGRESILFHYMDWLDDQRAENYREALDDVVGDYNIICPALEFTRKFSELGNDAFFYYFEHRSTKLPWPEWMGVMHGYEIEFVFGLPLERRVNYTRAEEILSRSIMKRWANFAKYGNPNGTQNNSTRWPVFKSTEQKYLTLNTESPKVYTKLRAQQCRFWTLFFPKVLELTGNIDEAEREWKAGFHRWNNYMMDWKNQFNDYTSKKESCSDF
Sequence of Carbonic anhydrase 1 (Homo sapiens) (P00915 2-261 limits assumed): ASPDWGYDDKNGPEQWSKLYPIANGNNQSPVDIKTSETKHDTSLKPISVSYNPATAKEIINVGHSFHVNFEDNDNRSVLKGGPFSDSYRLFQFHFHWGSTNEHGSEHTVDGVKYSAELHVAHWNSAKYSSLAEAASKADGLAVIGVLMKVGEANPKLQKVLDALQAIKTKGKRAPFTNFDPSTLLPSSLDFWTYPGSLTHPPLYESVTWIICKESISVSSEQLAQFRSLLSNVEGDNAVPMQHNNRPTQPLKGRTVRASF

## N[C@H](Cc1ccccc1)C(=O)O [D-PHENYLALANINE]
[1]
  Activity: inactive
[2]
  Activity: inactive
[3]
  Activity: Active
[4]
  Activity: Active
[5]
  Activity_index: 0.373
[6]
  Activity_index: 0.205

## N[C@@H](Cc1ccccc1)C(=O)NCCCCCNc1c2c(nc3ccccc13)CCCC2
[7]
  Activity: inactive
[8]
  Activity: inactive
[9]
  Activity: inactive
[10]
  Activity: inactive
[11]
  Activity: Active
[12]
  Activity: Active
[13]
  IC50: 7.4 nM
[14]
  IC50: 1.9 nM
[15]; filed as activator
  KA: 782 nM
[16]
  KA: 93.4 nM
[17]; filed as activator
  KA: 2610 nM
[18]; filed as activator
  KA: 1320 nM
[19]; filed as activator
  KA: 192 nM

## N[C@@H](Cc1c[nH]cn1)C(=O)NCCCCCNc1c2c(nc3ccccc13)CCCC2
[7]
  Activity: inactive
[8]
  Activity: inactive
[9]
  Activity: inactive
[10]
  Activity: inactive
[11]
  Activity: Active
[12]
  Activity: Active
[13]
  IC50: 29.8 nM
[14]
  IC50: 6.8 nM
[15]; filed as activator
  KA: 565 nM
[16]
  KA: 65.1 nM
[17]; filed as activator
  KA: 757 nM
[18]; filed as activator
  KA: 1010 nM
[19]; filed as activator
  KA: 96.4 nM

## N[C@@H](CCCCNC(=O)OCc1ccccc1)C(=O)NCCCNc1c2c(nc3ccccc13)CCCC2
[20]
  Activity: inactive
[21]
  Activity: inactive
[22]
  Activity: inactive
[23]
  Activity: inactive
[13]
  IC50: 110 nM
[14]
  IC50: 0.3 nM
[15]; filed as activator
  KA: 2080 nM
[16]
  KA: 1200 nM
[17]; filed as activator
  KA: 8520 nM
[18]; filed as activator
  KA: 4950 nM
[19]; filed as activator
  KA: 3080 nM

## COC(=O)[C@H](Cc1c[nH]cn1)NCCCCCCNc1c2c(nc3ccccc13)CCCC2
[7]
  Activity: inactive
[8]
  Activity: inactive
[9]
  Activity: inactive
[10]
  Activity: inactive
[11]
  Activity: Active
[12]
  Activity: Active
[13]
  IC50: 72.1 nM
[14]
  IC50: 4.2 nM
[15]; filed as activator
  KA: 266 nM
[16]
  KA: 76.9 nM
[17]; filed as activator
  KA: 918 nM
[18]; filed as activator
  KA: 893 nM
[19]; filed as activator
  KA: 98 nM

## COC(=O)[C@H](Cc1c[nH]c2ccccc12)NCCCCCCNc1c2c(nc3ccccc13)CCCC2
[13]
  IC50: 23.3 nM
[14]
  IC50: 2.8 nM
[15]; filed as activator
  KA: 436 nM
[16]
  KA: 631 nM
[17]; filed as activator
  KA: 2230 nM
[18]; filed as activator
  KA: 5100 nM
[19]; filed as activator
  KA: 637 nM

## c1ccc2c(NCCCCCCNCCc3c[nH]cn3)c3c(nc2c1)CCCC3
[13]
  IC50: 2.2 nM
[14]
  IC50: 2 nM
[15]; filed as activator
  KA: 236 nM
[16]
  KA: 102 nM
[17]; filed as activator
  KA: 2280 nM
[18]; filed as activator
  KA: 500 nM
[19]; filed as activator
  KA: 386 nM

## CC(C)(C)OC(=O)N[C@@H](Cc1cn(C(=O)OC(C)(C)C)cn1)C(=O)NCCCCCCNc1c2c(nc3ccccc13)CCCC2
[13]
  IC50: 14.5 nM
[14]
  IC50: 0.44 nM
[15]
  KA: > 50000 nM
[16]
  KA: 10000 nM
[17]
  KA: > 50000 nM
[18]
  KA: > 50000 nM
[19]
  KA: > 50000 nM

## CC(C)(C)OC(=O)N[C@@H](Cc1cn(C(=O)OC(C)(C)C)cn1)C(=O)NCCCNc1c2c(nc3ccccc13)CCCC2
[13]
  IC50: 157 nM
[14]
  IC50: 3.6 nM
[15]
  KA: > 50000 nM
[16]
  KA: 15900 nM
[17]
  KA: > 50000 nM
[18]
  KA: > 50000 nM
[19]
  KA: > 50000 nM
